# Key:
# [1] = The drug is tested on Coprococcus comes strain: ATCC27758 for biotransformation. The drug concentrations were measured before and after a 12-h incubation by liquid-chromatography-coupled mass spectrometry (LC–MS); format: ADME; parameters: dose 2 uM, timepoint 0 vs 12 hours; settings: 2 µM
# [2] = The drug is tested on Clostridium asparagiforme strain: DSM15981 for biotransformation. The drug concentrations were measured before and after a 12-h incubation by liquid-chromatography-coupled mass spectrometry (LC–MS); format: ADME; parameters: dose 2 uM, timepoint 0 vs 12 hours; settings: enterocloster asparagiformis, 2 µM
# [3] = bacteroides intestinalis, 12 h, 2 µM
# Description: The drug is tested on Bacteroides intestinalis strain: DSM17393 for biotransformation. The drug concentrations were measured before and after a 12-h incubation by liquid-chromatography-coupled mass spectrometry (LC–MS)
# [4] = The drug is tested on Bacteroides pectinophilus strain: ATCC43243 for biotransformation. The drug concentrations were measured before and after a 12-h incubation by liquid-chromatography-coupled mass spectrometry (LC–MS); settings: 2 µM
# [5] = bacteroides eggerthii, 12 h, 2 µM
# Description: The drug is tested on Bacteroides eggerthii strain: DSM20697 for biotransformation. The drug concentrations were measured before and after a 12-h incubation by liquid-chromatography-coupled mass spectrometry (LC–MS)
# [6] = The drug is tested on Providencia stuartii strain: ATCC25827 for biotransformation. The drug concentrations were measured before and after a 12-h incubation by liquid-chromatography-coupled mass spectrometry (LC–MS); settings: 2 µM
# [7] = roseburia intestinalis, 12 h, 2 µM
# Description: The drug is tested on Roseburia intestinalis strain: L1-82 for biotransformation. The drug concentrations were measured before and after a 12-h incubation by liquid-chromatography-coupled mass spectrometry (LC–MS)
# [8] = The drug is tested on Clostridium sp. strain: fecal isolate for biotransformation. The drug concentrations were measured before and after a 12-h incubation by liquid-chromatography-coupled mass spectrometry (LC–MS); settings: 2 µM
# [9] = The drug is tested on Collinsella intestinalis strain: DSM13280 for biotransformation. The drug concentrations were measured before and after a 12-h incubation by liquid-chromatography-coupled mass spectrometry (LC–MS); settings: 2 µM
# [10] = bacteroides thetaiotaomicron, 12 h, 2 µM
# Description: The drug is tested on Bacteroides thetaiotaomicron strain: 7330 for biotransformation. The drug concentrations were measured before and after a 12-h incubation by liquid-chromatography-coupled mass spectrometry (LC–MS)
# [11] = The drug is tested on Collinsella aerofaciens strain: ATCC25986 for biotransformation. The drug concentrations were measured before and after a 12-h incubation by liquid-chromatography-coupled mass spectrometry (LC–MS); settings: 2 µM
# [12] = The drug is tested on Bacteroides dorei strain: DSM17855 for biotransformation. The drug concentrations were measured before and after a 12-h incubation by liquid-chromatography-coupled mass spectrometry (LC–MS); settings: phocaeicola dorei, 2 µM
# [13] = The drug is tested on Eubacterium rectale strain: ATCC33656 for biotransformation. The drug concentrations were measured before and after a 12-h incubation by liquid-chromatography-coupled mass spectrometry (LC–MS); settings: agathobacter rectalis, 2 µM
# [14] = The drug is tested on Escherichia coli strain: BW25113 for biotransformation. The drug concentrations were measured before and after a 12-h incubation by liquid-chromatography-coupled mass spectrometry (LC–MS); settings: 2 µM
# [15] = The drug is tested on Clostridium sporogenes strain: ATCC15579 for biotransformation. The drug concentrations were measured before and after a 12-h incubation by liquid-chromatography-coupled mass spectrometry (LC–MS); settings: 2 µM
# [16] = The drug is tested on Bifidobacterium ruminantium strain: fecal isolate for biotransformation. The drug concentrations were measured before and after a 12-h incubation by liquid-chromatography-coupled mass spectrometry (LC–MS); settings: 2 µM
# [17] = segatella copri, 12 h, 2 µM
# Description: The drug is tested on Prevotella copri strain: DSM18205 for biotransformation. The drug concentrations were measured before and after a 12-h incubation by liquid-chromatography-coupled mass spectrometry (LC–MS)
# [18] = The drug is tested on Bifidobacterium longum subsp. Infantis strain: CCUG52486 for biotransformation. The drug concentrations were measured before and after a 12-h incubation by liquid-chromatography-coupled mass spectrometry (LC–MS); settings: 2 µM
# [19] = The drug is tested on Clostridium ramosum strain: DSM1402 for biotransformation. The drug concentrations were measured before and after a 12-h incubation by liquid-chromatography-coupled mass spectrometry (LC–MS); settings: thomasclavelia ramosa, 2 µM
# [20] = The drug is tested on Bacteroides fragilis strain: ATCC43859 for biotransformation. The drug concentrations were measured before and after a 12-h incubation by liquid-chromatography-coupled mass spectrometry (LC–MS); settings: 2 µM
Bacterial Biotransformation [1],Bacterial Biotransformation [2],Bacterial Biotransformation [3],Bacterial Biotransformation [4],Bacterial Biotransformation [5],Bacterial Biotransformation [6],Bacterial Biotransformation [7],Bacterial Biotransformation [8],Bacterial Biotransformation [9],Bacterial Biotransformation [10],Bacterial Biotransformation [11],Bacterial Biotransformation [12],Bacterial Biotransformation [13],Bacterial Biotransformation [14],Bacterial Biotransformation [15],Bacterial Biotransformation [16],Bacterial Biotransformation [17],Bacterial Biotransformation [18],Bacterial Biotransformation [19],Bacterial Biotransformation [20],SMILES
Compound NOT metabolized,Compound NOT metabolized,Compound NOT metabolized,Compound NOT metabolized,Compound NOT metabolized,–,Compound NOT metabolized,Compound NOT metabolized,Compound NOT metabolized,Compound NOT metabolized,–,Compound NOT metabolized,Compound NOT metabolized,–,Compound NOT metabolized,Compound NOT metabolized,Compound NOT metabolized,Compound NOT metabolized,Compound NOT metabolized,–,CC1Cc2ccccc2N1NC(=O)c1ccc(Cl)c(S(N)(=O)=O)c1 (stereo not given) [INDAPAMIDE]
Compound NOT metabolized,Compound NOT metabolized,Compound NOT metabolized,Compound NOT metabolized,Compound NOT metabolized,Compound NOT metabolized,–,–,Compound NOT metabolized,Compound NOT metabolized,Compound NOT metabolized,Compound NOT metabolized,Compound NOT metabolized,Compound NOT metabolized,Compound NOT metabolized,Compound NOT metabolized,–,Compound NOT metabolized,Compound NOT metabolized,–,CN1CCN2c3ccccc3Cc3ccccc3C2C1 (stereo not given) [MIANSERIN]
Compound NOT metabolized,–,Compound metabolized,Compound metabolized,Compound NOT metabolized,Compound NOT metabolized,Compound metabolized,Compound NOT metabolized,Compound NOT metabolized,Compound metabolized,Compound NOT metabolized,Compound metabolized,Compound NOT metabolized,Compound metabolized,Compound NOT metabolized,Compound NOT metabolized,Compound metabolized,Compound metabolized,Compound NOT metabolized,Compound metabolized,COc1ccc2c(c1)c(CC(=O)O)c(C)n2C(=O)c1ccc(Cl)cc1 [INDOMETHACIN]
Compound NOT metabolized,Compound NOT metabolized,Compound NOT metabolized,Compound NOT metabolized,Compound NOT metabolized,–,–,–,Compound NOT metabolized,Compound metabolized,Compound NOT metabolized,Compound metabolized,Compound NOT metabolized,Compound NOT metabolized,Compound NOT metabolized,–,Compound NOT metabolized,Compound NOT metabolized,–,–,N#Cc1ccc2c(c1)N(CCCN1CCC(O)CC1)c1ccccc1S2 [PERICIAZINE]

# Further lines, the molecule ahead of its results:
SMILES,Bacterial Biotransformation [1],Bacterial Biotransformation [2],Bacterial Biotransformation [3],Bacterial Biotransformation [4],Bacterial Biotransformation [5],Bacterial Biotransformation [6],Bacterial Biotransformation [7],Bacterial Biotransformation [8],Bacterial Biotransformation [9],Bacterial Biotransformation [10],Bacterial Biotransformation [11],Bacterial Biotransformation [12],Bacterial Biotransformation [13],Bacterial Biotransformation [14],Bacterial Biotransformation [15],Bacterial Biotransformation [16],Bacterial Biotransformation [17],Bacterial Biotransformation [18],Bacterial Biotransformation [19],Bacterial Biotransformation [20]
CCN(CC)C(C)CN1c2ccccc2Sc2ccccc21 (stereo not given) [ETHOPROPAZINE],Compound NOT metabolized,Compound NOT metabolized,Compound metabolized,Compound metabolized,Compound NOT metabolized,Compound metabolized,Compound NOT metabolized,Compound metabolized,Compound NOT metabolized,Compound metabolized,Compound NOT metabolized,Compound metabolized,Compound NOT metabolized,Compound metabolized,Compound NOT metabolized,–,–,–,–,–
CCOC(=O)[C@H](CCc1ccccc1)N[C@@H](C)C(=O)N1CCC[C@H]1C(=O)O.O=C(O)/C=C\C(=O)O [ENALAPRIL MALEATE],Compound NOT metabolized,Compound NOT metabolized,Compound NOT metabolized,Compound NOT metabolized,Compound NOT metabolized,Compound NOT metabolized,Compound NOT metabolized,–,Compound NOT metabolized,–,Compound NOT metabolized,–,Compound NOT metabolized,Compound NOT metabolized,Compound NOT metabolized,Compound NOT metabolized,Compound NOT metabolized,Compound NOT metabolized,Compound NOT metabolized,–
OCCN(CCO)c1nc(N2CCCCC2)c2nc(N(CCO)CCO)nc(N3CCCCC3)c2n1 [DIPYRIDAMOLE],Compound NOT metabolized,Compound NOT metabolized,Compound NOT metabolized,–,Compound NOT metabolized,Compound NOT metabolized,Compound NOT metabolized,Compound metabolized,Compound NOT metabolized,Compound NOT metabolized,Compound NOT metabolized,Compound metabolized,Compound NOT metabolized,Compound NOT metabolized,Compound metabolized,–,Compound NOT metabolized,Compound NOT metabolized,–,–
COc1ccc(Cc2nccc3cc(OC)c(OC)cc23)cc1OC [PAPAVERINE],Compound NOT metabolized,–,Compound NOT metabolized,Compound NOT metabolized,Compound NOT metabolized,Compound NOT metabolized,Compound NOT metabolized,Compound NOT metabolized,Compound NOT metabolized,Compound NOT metabolized,Compound NOT metabolized,Compound metabolized,Compound NOT metabolized,Compound NOT metabolized,Compound NOT metabolized,Compound NOT metabolized,Compound NOT metabolized,Compound NOT metabolized,Compound NOT metabolized,Compound NOT metabolized
CN1CCc2c(c3ccccc3n2Cc2ccccc2)C1.CN1CCc2c(c3ccccc3n2Cc2ccccc2)C1.O=S(=O)(O)c1cccc2c(S(=O)(=O)O)cccc12,Compound NOT metabolized,–,Compound NOT metabolized,Compound NOT metabolized,Compound NOT metabolized,Compound NOT metabolized,Compound NOT metabolized,Compound NOT metabolized,Compound NOT metabolized,Compound NOT metabolized,Compound NOT metabolized,Compound NOT metabolized,Compound NOT metabolized,Compound NOT metabolized,Compound NOT metabolized,Compound NOT metabolized,Compound NOT metabolized,Compound NOT metabolized,Compound NOT metabolized,Compound NOT metabolized

# From ChEMBL document CHEMBL5303573, “Mapping human microbiome drug metabolism by gut bacteria and their genes” (Nature, 2019)
